One molecule from patent publication US6965021B2, “Feedback-resistant pyruvate carboxylase gene from corynebacterium” (Archer-Daniels-Midland Company, priority 2000, dated 2005) can be followed below.

Assay [1] deals with Corynebacterium glutamicum NRRL B-11474 (BF100) pyruvate carboxylase, feedback-resistant variant (M1V, E153D, A182S, A206S, H227R, A455G, D1120E), SEQ ID NO:2 (Corynebacterium glutamicum, UniProt H7C7K2, A182S/A206S/A455G/D1120E/E153D/H227R/M1V). Here is the method: (§1) Pyruvate carboxylate and phosphoenol pyruvate carboxylate assays were performed with permeabilized cells prepared by the following method. Log phase cells were harvested by centrifugation for 10 min at 5000×g at 4° C. and washed with 20 ml of the ice-cold washing buffer (50 mM Tris/HCl [pH 6.3] containing 50 mM NaCl). The cell pellet was resuspended in an ice-cold Hepes buffer (100 mM Hepes [pH 7.5] containing 20% Glycerol) to reach a final concentration of 25 g dry cell weight/liter. Resuspended cells were permeabilized by adding 30 μl of a 10% Hexadecyltrimethyl-ammonium bromide (CTAB) (w/v) solution to 1 ml of cells to give a final concentration of 0.3% (CTAB)(v/v).
The reaction was started at 30° C. with the addition of 10 μl of the permeabilized cell suspension, and the formation of DTNB-thiophenolate was followed over time at 412 nm. Relevant standards and controls were carried out in the same manner.
To account for the intrinsic loss of OAA during the experiment, a continuous assay was carried out by coupling the two-reaction assay to a one-reaction assay in presence of an excess of citrate synthase. The amount of permeabilized cells added in the assay was optimized to obtain a detectable activity, with the lowest possible background absorbency due to the presence of cells.
Pyruvate carboxylase activity was determined as a function of various concentrations of its substrates: pyruvate, bicarbonate and ATP (FIG. 3). Based on the data generated, the affinity constants of pyruvate carboxylase for its substrates were determined (Table 2).
To determine the effect of aspartate on the activity of pyruvate carboxylase, aspartate was added at different concentrations in the spectrophotometer cuvette and enzyme activities were measured. As a comparison, the same experiment was carried out with PEPC in ATCC 21253 (FIG. 5).
Pyruvate carboxylase activity was measured in the presence of different concentrations of acetyl-CoA (FIG. 6). […] The effect of acetyl-CoA on citrate synthase itself was studied also.

The target of assay [2] is T1, Corynebacterium glutamicum ATCC 21253 phosphoenol pyruvate carboxylase (PEPC) (Corynebacterium glutamicum, UniProt P12880).
T1 sequence (P12880 1-919): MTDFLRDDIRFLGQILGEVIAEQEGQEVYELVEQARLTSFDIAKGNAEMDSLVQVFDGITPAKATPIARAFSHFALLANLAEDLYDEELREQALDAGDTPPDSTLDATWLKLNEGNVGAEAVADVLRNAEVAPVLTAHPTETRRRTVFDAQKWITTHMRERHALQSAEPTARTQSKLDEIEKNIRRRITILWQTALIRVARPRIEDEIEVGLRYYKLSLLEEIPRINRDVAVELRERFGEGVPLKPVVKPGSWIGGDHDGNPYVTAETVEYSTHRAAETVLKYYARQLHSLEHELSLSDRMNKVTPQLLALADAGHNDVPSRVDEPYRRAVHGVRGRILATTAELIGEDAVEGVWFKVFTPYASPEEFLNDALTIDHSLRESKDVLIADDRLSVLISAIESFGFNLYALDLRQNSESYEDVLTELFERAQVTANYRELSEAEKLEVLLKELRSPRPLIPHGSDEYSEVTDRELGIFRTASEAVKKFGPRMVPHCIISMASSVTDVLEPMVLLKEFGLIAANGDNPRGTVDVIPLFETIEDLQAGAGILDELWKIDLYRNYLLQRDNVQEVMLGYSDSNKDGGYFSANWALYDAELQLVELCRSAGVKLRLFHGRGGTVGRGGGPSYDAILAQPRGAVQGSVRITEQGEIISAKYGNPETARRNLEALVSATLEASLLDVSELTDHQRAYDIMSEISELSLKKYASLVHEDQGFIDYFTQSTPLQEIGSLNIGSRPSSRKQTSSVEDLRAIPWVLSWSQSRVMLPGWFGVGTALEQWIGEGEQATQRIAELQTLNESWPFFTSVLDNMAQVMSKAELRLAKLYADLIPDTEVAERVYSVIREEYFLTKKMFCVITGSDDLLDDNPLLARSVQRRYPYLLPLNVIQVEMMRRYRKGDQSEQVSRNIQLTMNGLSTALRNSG
As to the kind of experiment: Phosphoenol pyruvate carboxylase assay (permeabilized cells), ATCC 21253. Format: biochemical. Conditions: no concentration stated. Here is the method:
as §1
For determination of phosphoenol pyruvate carboxylase activity, the assay mixture contained 10 mM phosphoenol pyruvate, 14 mM KHCO3, 4 mM MgCl2, 50 μmole acetyl-CoA, 0.3 mg bovine serum albumin, 0.055 U citrate synthase and 50 mM sodium phosphate buffer ([pH 7.5] containing 0.1 mg 5,5′-Dithio-bis(2-nitrobenzoic acid) (DTNB)) in a final volume of 1 ml. The reaction was carried out in the same conditions described for the pyruvate carboxylase assay.
Aspartate inhibits phosphoenol pyruvate carboxylase (PEPC) activity. To determine the effect of aspartate on the activity of pyruvate carboxylase, aspartate was added at different concentrations in the spectrophotometer cuvette and enzyme activities were measured. […]

Where two headings read alike, the source gives them in different places.

Consider `N[C@@H](CC(=O)O)C(=O)O` [aspartate, aspartic acid], for which the “effect of aspartate on pyruvate carboxylase activity” value was “activated” in assay [1] (0-30 mM aspartate) and “inhibited” in assay [1] (30-100 mM aspartate). Besides, in assay [2], the “inhibition of PEPC by aspartate” value is on record as “strongly inhibited”.
